Structures are written as SMILES. Several values for one entry are separate records, joined by “and”; a condition that tells them apart may be missing. Identical values can stand only once.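 Compound exposure: 48 hours, 5 concentrations, 96-well plates. GI50 = concentration required for 50% inhibition of growth.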 Activity calls are given as the source filed them. No stated cut-off is given here; in the data, active = GI50 up to about 1.1 µM and inactive = higher.

Some test systems named below: CCRF-CEM; DMS-273; EKVX; HCC 2998; HCT-116; Hs-578T; IGROV-1; K562; KM-20L2; KM12; LOX IMVI; MDA-MB-435; Malme-3M; OVCAR-5; SF-295; SK-MEL-2; SK-MEL-5; SNB-78; TK-10; UACC-62.
Test in all cases: NCI tumour cell line growth inhibition, 48 h

In the case of `OCCCCCCOc1ccc(-c2cc(-c3ccccn3)nc(-c3ccccn3)c2)cc1`, the GI50 with CCRF-CEM was 0.026 µM (active); in the experiment with DMS-273, 0.211 µM (active); in the experiment with EKVX, 0.18 µM (active); with HCC 2998 it was 0.187 µM (active); with HCT-116 it was 0.132 µM (active); with Hs-578T, 419 nM (active). In addition, the GI50 in the experiment with IGROV-1 was 0.205 µM (active); with K562, 0.0728 µM (active); in the experiment with KM-20L2 it was 0.0897 µM (active); with KM12, 0.388 µM (active); with LOX IMVI, 0.117 µM (active); in the experiment on MDA-MB-435, 0.462 µM (active). Moreover, the GI50 was 0.404 µM (active) in the experiment on Malme-3M; 0.489 µM (active) in the experiment with OVCAR-5; 0.194 µM (active) with SF-295; 0.233 µM (active) in the experiment on SK-MEL-2; 0.243 µM (active) in the experiment with SK-MEL-5; 0.524 µM (active) in the experiment on SNB-78. Further, the figures for the GI50 in the experiment with TK-10 and in the experiment with UACC-62 were 0.357 µM (active) and 0.149 µM (active), respectively.

As for `CCC1OCCN1C(C)C` (stereo not given), the GI50 was > 100 µM (inactive) in the experiment with CCRF-CEM; 69.2 µM (inactive) with DMS-273; 26.2 µM (inactive) in the experiment with EKVX; > 100 µM (inactive) in the experiment with HCC 2998; 89.9 µM (inactive) with HCT-116; > 100 µM (inactive) with IGROV-1. The GI50 in the experiment with K562 was > 100 µM (inactive); in the experiment with KM-20L2, > 100 µM (inactive); with KM12 it was > 100 µM (inactive); in the experiment with LOX IMVI it was > 100 µM (inactive); in the experiment with Malme-3M, 65.2 µM (inactive); in the experiment on OVCAR-5 it was > 100 µM (inactive). Moreover, the GI50 with SF-295 was > 100 µM (inactive); in the experiment on SK-MEL-2, > 100 µM (inactive); with SK-MEL-5, 70.8 µM (inactive); with SNB-78, > 100 µM (inactive); in the experiment with TK-10 it was 42 µM (inactive); with UACC-62, 59 µM (inactive).

`CCOC(OCC)C(CC)[Se]c1ccccc1` (stereo not given): the GI50 is 16.3 µM (inactive) in the experiment on CCRF-CEM; 14.1 µM (inactive) in the experiment on DMS-273; > 100 µM (inactive) in the experiment on EKVX; 35.2 µM (inactive) in the experiment on HCC 2998; 31.8 µM (inactive) with HCT-116; > 100 µM (inactive) in the experiment on IGROV-1. In addition, the GI50 in the experiment on K562 was > 100 µM (inactive); in the experiment on KM-20L2 it was 19.5 µM (inactive); with KM12 it was > 100 µM (inactive); in the experiment with LOX IMVI it was 5.82 µM (inactive); in the experiment on Malme-3M, 5.02 µM (inactive); in the experiment with OVCAR-5, > 100 µM (inactive). Also, the GI50 in the experiment with SF-295 is > 100 µM (inactive); in the experiment on SK-MEL-2, > 100 µM (inactive); in the experiment on SK-MEL-5, > 100 µM (inactive); in the experiment with SNB-78, 64.3 µM (inactive); with TK-10 it was > 100 µM (inactive); in the experiment with UACC-62 it was > 100 µM (inactive).

As to `COc1ccc2oc3cccc(NCCN(C)C)c3c(=O)c2c1`, the GI50 in the experiment with CCRF-CEM is 11.9 µM (inactive); with DMS-273, 12.1 µM (inactive); with EKVX it was 15 µM (inactive); in the experiment on HCC 2998, 8.65 µM (inactive); with HCT-116, 7.01 µM (inactive); in the experiment with IGROV-1, 16.6 µM (inactive). In addition, the GI50 with K562 is 9.35 µM (inactive); in the experiment with KM-20L2, 9.14 µM (inactive); with KM12, 13.1 µM (inactive); in the experiment with LOX IMVI, 10.6 µM (inactive); in the experiment on Malme-3M it was 15.6 µM (inactive); in the experiment with OVCAR-5, 12.3 µM (inactive). Moreover, the GI50 in the experiment on SF-295 is 16.1 µM (inactive); in the experiment with SK-MEL-2, 16.5 µM (inactive); in the experiment on SK-MEL-5, 16.7 µM (inactive); with SNB-78, 17.7 µM (inactive); with TK-10, 14.8 µM (inactive); in the experiment with UACC-62, 12.7 µM (inactive).

Take `COC(=O)C(C(=O)C(=O)Nc1ccc(Br)cc1)c1nc2ccc(Cl)cc2nc1O` (stereo not given): the GI50 with CCRF-CEM was > 90.2 µM (inactive); in the experiment with DMS-273, > 70.6 µM (inactive); in the experiment on EKVX, > 100 µM (inactive); with HCC 2998, > 100 µM (inactive); in the experiment with HCT-116, > 100 µM (inactive); in the experiment with IGROV-1 it was > 100 µM (inactive). Further, the GI50 in the experiment with K562 was > 67.8 µM (inactive); in the experiment on KM-20L2, > 100 µM (inactive); in the experiment on KM12, > 66.5 µM (inactive); with LOX IMVI it was > 76.7 µM (inactive); in the experiment with Malme-3M it was > 100 µM (inactive); with OVCAR-5, > 100 µM (inactive). Besides, the GI50 in the experiment on SF-295, with SK-MEL-2, with SK-MEL-5, in the experiment with SNB-78, in the experiment on TK-10 and in the experiment with UACC-62 was > 100 µM (inactive) throughout.

With `COc1ccc2cc1Oc1ccc(cc1)C[C@H]1c3cc(c(OC)cc3CCN1C)Oc1c(OC)c(OC)cc3c1[C@H](C2)N(C)CC3` [FANCHININ], the GI50 was 33 µM (inactive) and 3.54 µM (inactive) with CCRF-CEM; 6.31 µM (inactive) in the experiment with DMS-273; 1.71 µM (inactive) in the experiment on HCC 2998; 4.5 µM (inactive) and 50.5 µM (inactive) in the experiment on HCT-116; 8.63 µM (inactive) and 30.1 µM (inactive) with Hs-578T; 9.2 µM (inactive) and 49.2 µM (inactive) in the experiment with IGROV-1. Also, the GI50 with K562 is 41.2 µM (inactive) and 1.57 µM (inactive); in the experiment on KM-20L2, 3.8 µM (inactive); in the experiment with SF-295 it was 8.93 µM (inactive) and 36.2 µM (inactive); with SK-MEL-5, 6.1 µM (inactive) and 57.3 µM (inactive); in the experiment on SNB-78, 9.44 µM (inactive); in the experiment with TK-10 it was 22.9 µM (inactive) and 8.41 µM (inactive).

On to `NC(=O)COC(=O)c1c(Cl)nc2sccn12`, for which the GI50 is > 31.6 µM (inactive) in the experiment on CCRF-CEM; 81.7 µM (inactive) with DMS-273; > 100 µM (inactive) with EKVX; > 100 µM (inactive) in the experiment on HCC 2998; > 31.6 µM (inactive) in the experiment on HCT-116; > 100 µM (inactive) in the experiment with IGROV-1. In addition, the GI50 was > 63.2 µM (inactive) in the experiment with K562; > 100 µM (inactive) with KM-20L2; > 100 µM (inactive) in the experiment on KM12; > 75.5 µM (inactive) in the experiment on LOX IMVI; > 100 µM (inactive) with Malme-3M; > 100 µM (inactive) in the experiment with OVCAR-5. Besides, the GI50 in the experiment with SF-295, with SK-MEL-2, with SK-MEL-5, in the experiment on SNB-78, in the experiment on TK-10 and with UACC-62 was > 100 µM (inactive) each time.

As to `O=C(O)/C(Cl)=C(\Cl)C(=O)Nc1ccc(Cl)c(Cl)c1Cl`, the GI50 with CCRF-CEM was 37.2 µM (inactive); in the experiment on DMS-273, 21 µM (inactive); in the experiment with EKVX, 22.6 µM (inactive); in the experiment with HCC 2998 it was 18.9 µM (inactive); with HCT-116, 11.8 µM (inactive); with IGROV-1 it was 20.7 µM (inactive). Besides, the GI50 was 28 µM (inactive) in the experiment with K562; 23.2 µM (inactive) with KM-20L2; 19.4 µM (inactive) in the experiment with KM12; 17.4 µM (inactive) in the experiment with LOX IMVI; 19.3 µM (inactive) with Malme-3M; 18.2 µM (inactive) in the experiment on OVCAR-5. The GI50 in the experiment with SF-295 was 18.5 µM (inactive); in the experiment with SK-MEL-2, 18.2 µM (inactive); with SK-MEL-5, 29.4 µM (inactive); with SNB-78, 28.4 µM (inactive); in the experiment with TK-10, 16.8 µM (inactive); in the experiment with UACC-62, 13.3 µM (inactive).

As to `Cc1cc2c(=O)cc(-c3ccc(C(=O)O)cc3)oc2c(C(=O)O)c1C`, the GI50 in the experiment with CCRF-CEM, with DMS-273, with EKVX, with HCC 2998, with HCT-116 and with IGROV-1 was > 100 µM (inactive) each time. Moreover, the GI50 in the experiment with K562, in the experiment on KM-20L2, in the experiment with KM12, with LOX IMVI, with Malme-3M and in the experiment with OVCAR-5 was > 100 µM (inactive) each time. The GI50 in the experiment on SF-295, with SK-MEL-2, with SK-MEL-5, in the experiment with SNB-78, with TK-10 and in the experiment with UACC-62 was > 100 µM (inactive) throughout.

With `C=CCc1cc2cccc(OC)c2oc1=O`, the GI50 in the experiment on CCRF-CEM is 45.2 µM (inactive); in the experiment with DMS-273, > 100 µM (inactive); in the experiment on EKVX it was 44.3 µM (inactive); in the experiment on HCC 2998 it was > 100 µM (inactive); in the experiment on HCT-116 it was > 100 µM (inactive); in the experiment with IGROV-1, > 100 µM (inactive). For the same molecule, the GI50 was 75.5 µM (inactive) with K562; > 100 µM (inactive) with KM-20L2; > 100 µM (inactive) in the experiment with KM12; 93.3 µM (inactive) with LOX IMVI; > 100 µM (inactive) in the experiment on Malme-3M; 66.1 µM (inactive) in the experiment on OVCAR-5. Further, the GI50 is > 100 µM (inactive) with SF-295; > 100 µM (inactive) in the experiment on SK-MEL-2; 87.3 µM (inactive) in the experiment with SK-MEL-5; > 100 µM (inactive) with SNB-78; > 100 µM (inactive) with TK-10; > 100 µM (inactive) with UACC-62.

Take `COC1C(O)C(C)OC(OC2C(Oc3cccc4c(O)c5c(=O)oc6ccc(C)c7c(=O)oc(c34)c5c67)OC(C)C3O[C@H](c4ccccc4)OC32)C1O` (stereo not given in full): the GI50 in the experiment with DMS-273 was 0.0206 µM (active); with EKVX, 1.24 µM (inactive); in the experiment on HCC 2998, 0.453 µM (active); with Hs-578T, 531 nM (active); with IGROV-1, 0.0681 µM (active); with KM-20L2 it was 0.055 µM (active). Also, the GI50 in the experiment on Malme-3M is 0.845 µM (active); in the experiment with OVCAR-5 it was 1.48 µM (inactive); with SF-295, 0.103 µM (active); in the experiment on SK-MEL-2, 0.824 µM (active); with SK-MEL-5 it was 0.131 µM (active); with SNB-78, 0.875 µM (active). Also, the GI50 in the experiment with TK-10 was 1.06 µM (active); in the experiment on UACC-62, 0.14 µM (active).

The record behind these values is ChEMBL document CHEMBL1201862, “PubChem BioAssay data set” (2004).
